Assay results reported in the supplement of paper PMC9663587.

How the values were obtained:
Experiment in all cases: GRmax, 72 h; higher = less effect;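 further: breast cell lines in 384-well plates, nine doses across a 10^4 range, Dye Drop imaging of viable cells vs DMSO and time-zero plates, GR 0 means no net growth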
[1] = test system: HCC1954
[2] = test system: HS578T
[3] = test system: MDAMB468
[4] = test system: ZR7530
[5] = test system: T47D
[6] = test system: EFM19
[7] = test system: HCC1187
[8] = test system: MCF10A
[9] = test system: SUM229PE
[10] = test system: SUM190PT
[11] = test system: CAL120
[12] = test system: SKBR3
[13] = test system: MCF12A

Compound | GRmax, 72 h [1] | GRmax, 72 h [2] | GRmax, 72 h [3] | GRmax, 72 h [4] | GRmax, 72 h [5] | GRmax, 72 h [6] | GRmax, 72 h [7] | GRmax, 72 h [8] | GRmax, 72 h [9] | GRmax, 72 h [10] | GRmax, 72 h [11] | GRmax, 72 h [12] | GRmax, 72 h [13]
COc1ccc2c(c1)[C@]1(C[C@H]1c1ccc3c(/C=C/c4ccc(CN5C[C@@H](C)O[C@@H](C)C5)cc4)n[nH]c3c1)C(=O)N2 | -0.209 GR | -0.103 GR | -0.38 GR | 0.174 GR | -0.0071 GR | 0.146 GR | -0.485 GR | -0.0342 GR | -0.0183 GR | 0.12 GR | 0.175 GR | -0.0682 GR | 0.0038 GR
COc1cccc(OCCCN)c1-c1cc(Nc2cnc(C#N)cn2)n[nH]1 | -0.312 GR | -0.359 GR | 0.6 GR | 0.561 GR | 0.428 GR | 0.929 GR | -0.498 GR | 0.351 GR | -0.112 GR | -0.101 GR | 0.317 GR | -0.406 GR | -0.167 GR
CC(=O)Nc1cccc(-n2c(=O)n(C3CC3)c(=O)c3c(Nc4ccc(I)cc4F)n(C)c(=O)c(C)c32)c1 (max 1 µM) | 0.229 GR | 0.193 GR | 0.407 GR | 0.405 GR | 0.58 GR | 0.952 GR | 0.76 GR | 0.225 GR | 0.172 GR | 0.744 GR | 0.415 GR | 0.683 GR | -0.0287 GR
CCc1cnn2c(NCc3ccc[n+]([O-])c3)cc(N3CCCC[C@H]3CCO)nc12 (max 1 µM) | -0.464 GR | -0.239 GR | -0.413 GR | -0.714 GR | -0.211 GR | -0.532 GR | -0.791 GR | -0.23 GR | -0.21 GR | -0.659 GR | -0.132 GR | -0.621 GR | -0.327 GR
CC(=O)c1c(C)c2cnc(Nc3ccc(N4CCNCC4)cn3)nc2n(C2CCCC2)c1=O (max 3.162 µM) | 0.526 GR | 0.305 GR | 1.05 GR | 0.266 GR | 0.117 GR | 0.308 GR | 0.646 GR | 0.454 GR | 0.4 GR | 0.347 GR | 0.669 GR | 0.35 GR | 0.684 GR
CCc1cncnc1N1CCN(Cc2nc3ccc(C(F)(F)F)cc3[nH]2)CC1 (max 10 µM) | 0.835 GR | 0.914 GR | 0.0813 GR | 0.113 GR | 0.366 GR | 0.921 GR | 0.575 GR | 0.721 GR | 0.743 GR | 0.461 GR | 0.924 GR | 0.734 GR | 0.964 GR
CCCCOc1c(C(=O)c2c(F)cc(C)cc2F)c[nH]c2nncc1-2 (max 10 µM) | -0.0431 GR | -0.0288 GR | -0.112 GR | 0.212 GR | 0.0035 GR | 0.188 GR | 0.437 GR | 0.0637 GR | 0.0454 GR | -0.0112 GR | 0.369 GR | -0.0172 GR | 0.338 GR
CCN1CCN(Cc2ccc(Nc3ncc(F)c(-c4cc(F)c5nc(C)n(C(C)C)c5c4)n3)nc2)CC1 (max 10 µM) | -0.505 GR | -0.583 GR | -0.288 GR | 0.125 GR | -0.0412 GR | 0.267 GR | 0.0999 GR | 0.151 GR | 0.146 GR | -0.582 GR | -0.141 GR | 0.143 GR | 0.393 GR
CNc1nc(-c2ccc3c(N)n[nH]c3c2)cc(N2C[C@@H](C(=O)NC3CCCCC3)CC[C@H]2C)n1 (max 10 µM) | 0.733 GR | 0.538 GR | 0.531 GR | 0.348 GR | 0.164 GR | 0.292 GR | 0.504 GR | 0.918 GR | 0.696 GR | 0.236 GR | 0.786 GR | 0.307 GR | 0.8 GR
CO[C@@H](C)Cn1c(=O)n(C)c2cnc3ccc(-c4cncc(C(C)(C)O)c4)cc3c21 (max 10 µM) | -0.346 GR | 0.0776 GR | -0.211 GR | -0.36 GR | -0.289 GR | -0.255 GR | -0.718 GR | 0.108 GR | 0.0211 GR | -0.5 GR | 0.0419 GR | -0.502 GR | 0.133 GR
Cc1nn(C)c(COc2ccc(N3CCN(S(=O)(=O)N(C)C)CC3)cc2)c1-c1cccc2c(CCCOc3cccc4ccccc34)c(C(=O)O)n(CCN3CCOCC3)c12 (max 10 µM) | 0.884 GR | 0.942 GR | 0.93 GR | 0.576 GR | 0.575 GR | 1 GR | 0.863 GR | 0.953 GR | 0.547 GR | 0.114 GR | 0.943 GR | 0.627 GR | 0.993 GR
CN(C)CC[C@H](CSc1ccccc1)Nc1ccc(S(=O)(=O)NC(=O)c2ccc(N3CCN(Cc4ccccc4-c4ccc(Cl)cc4)CC3)cc2)cc1[N+](=O)[O-] [ABT-737] (max 10 µM) | 0.496 GR | 0.775 GR | 0.142 GR | 0.552 GR | 0.589 GR | 0.475 GR | 0.492 GR | 0.817 GR | 0.418 GR | -0.475 GR | -0.434 GR | 0.947 GR | 0.979 GR
C=CCn1c(=O)c2cnc(Nc3ccc(N4CCN(C)CC4)cc3)nc2n1-c1cccc(C(C)(C)O)n1 [AZD1775] (max 10 µM) | -0.416 GR | -0.394 GR | -0.492 GR | -0.501 GR | 0.162 GR | -0.425 GR | -0.729 GR | 0.0997 GR | -0.259 GR | -0.197 GR | -0.238 GR | -0.561 GR | -0.21 GR
CNC(=O)c1cccc(-c2ccc3c(N4CCOC[C@@H]4C)nc(N4CCOC[C@@H]4C)nc3n2)c1 [AZD2014] (max 10 µM) | 0.0889 GR | 0.273 GR | 0.23 GR | -0.24 GR | -0.0708 GR | -0.0465 GR | 0.227 GR | 0.183 GR | 0.338 GR | -0.514 GR | 0.206 GR | -0.0488 GR | 0.147 GR
NC1(C(=O)N[C@@H](CCO)c2ccc(Cl)cc2)CCN(c2nc[nH]c3nccc2-3)CC1 [AZD5363] (max 10 µM) | 0.272 GR | 0.349 GR | 0.545 GR | 0.187 GR | 0.179 GR | 0.23 GR | 0.426 GR | 0.805 GR | 0.516 GR | 0.243 GR | 0.806 GR | 0.138 GR | 0.617 GR
